Results on one molecule are retold here after patent publication US20030028927A1 (priority 2001, published 2003).

Common to all, as to assay type: in vivo, Arabidopsis thaliana
The subject of test [1] is Cvi/Ler RI line seedlings. Briefly: RI line specific phenotypes on GdA. The source says: To test this, recombinant inbred lines (RI lines) were examined, which originated from crosses between two ecotypes followed by single-seed self-propagation for eight generations. Each line should be homozygous at almost all loci, with different lines representing various mosaics of the parental genomes (Alonso-Blanco et al., 1998). If a decrease in Hsp90 function uncovers novel phenotypes due to natural variation, GdA-induced phenotypes should vary between RI lines but tend to be shared within them. Here, work with 50 RI lines derived from a cross between Cvi and Ler (Cvi/Ler, CS22477 base set, ABRC) is presented. These lines are characterized by high rates of recombination and low segregation distortion (Alonso-Blanco et al., 1998). Col/Ler RI lines behaved similarly, although phenotypic variation was not quite so dramatic.
(§1) Ecotypes were crossed several times in independent experiments to produce F1 seeds. […] Plates were unwrapped after 48 hrs at 22° C., were incubated in continuous light at ˜150 μmol m^−2 sec^−1 (unless otherwise indicated), and were analyzed after eight and ten days of growth.
To minimize variation and provide more objective comparisons, two RI lines were plated together on each square plate. All sets were cold treated for 48 hrs. Foil-wrapped plates incubated at 22° C. were treated as described above. Since development was more rapid at 27° C., these plates were unwrapped after 24 hrs instead of 48 hrs. Phenotypes were scored at eight and ten days.

In test [2] the test system is F1 seedlings (Col x Ler and Ler x Cvi). Description: Phenotypes of F1 progeny of accession crosses with GdA. The note with it: Col x Ler and Ler x Cvi F1, in the presence of GdA.
Text: To investigate the interplay of genetic variation, stochastic processes, and their dependence on the Hsp90 buffering system, Applicants tested crosses of different, nearly homozygous accessions (Col x Ler and Ler x Cvi) that are believed to have been recentlyevolving independently. If stochastic events contribute to phenotypes predisposed by genotype, then mixing genomes might disrupt developmental stability in F1 progeny. Further, if Hsp90 buffers developmental stability against such events, reducing Hsp90 function in nearly identical F1 progeny should increase phenotypic variance. […] Phenotypes were stronger and more frequent in seedlings with a maternal contribution from Ler (˜20 to 25% affected seedlings) than with maternal contributions from Col or Cvi (˜10 to 15%).
as §1

Test [3] has as its system Arabidopsis seedlings (ecotypes Col, Ler, Shadara). Description: Morphological phenotypes of Arabidopsis ecotype seedlings grown on Hsp90 inhibitor. How it is done:
In most cases phenotypes were distinct and were not accompanied by a general failure to thrive. […] Next, several Arabidopsis ecotypes were tested from diverse geographic locations and environments, including Cape Verde Island ([…], Tsu-1, Mr-0, and Ts-1. […] Particular phenotypes were not restricted to particular ecotypes, but the frequencies at which they appeared varied reproducibly between them. […] 30% of seedlings had these phenotypes. […] also frequently produced distorted rosettes with juxtaposed cotyledons. Dwarfed plants with cotyledons that accumulated purple pigment were most common in Col. Curled hypocotyls were most frequent in Ler. Ecotypes were crossed several times in independent experiments to produce F1 seeds. […] Plates were unwrapped after 48 hrs at 22° C., were incubated in continuous light at 150 μmol m^-2 sec^-1 (unless otherwise indicated), and were analyzed after eight and ten days of growth.

Setting [4] is: RI line 082, S-shaped rosette with vertically oriented leaf blade of cotyledons.
Setting [5] is: RI line 104, purple pigmentation of cotyledons and true leaves.
Where [6] appears, read: RI line 113, curled hypocotyl with root partially extended into air.
[7] abbreviates: RI line 119, deformed, radially-symmetric and missing true leaves.
Setting [8] is: RI line 120, radially-symmetric and missing true leaves.
[9] abbreviates: RI line 122, distorted rosette, juxtaposed or fused cotyledons.

With `COC1=C2C[C@@H](C)C[C@H](OC)[C@H](O)[C@@H](C)/C=C(\C)[C@H](OC(N)=O)[C@@H](OC)/C=C\C=C(/C)C(=O)NC(=CC1=O)C2=O` [GdA, geldanamycin], the “Frequency with 1 μM GdA at 22° C.” value in test [1] (setting [4]) is 32%; in test [1] (setting [5]) it was 34%; in test [1] (RI line 104, root morphology) it was 52%; in test [1] (setting [6]), 32%; in test [1] (setting [7]) it was 68%; in test [1] (setting [8]), 64%. Besides, the “Frequency with 1 μM GdA at 22° C.” value is on record as 28% in test [1] (setting [9]); 88% in test [1] (RI line 134, bent hypocotyls); 50% in test [1] (RI line 159, root morphology). Besides, the “Frequency with 1 μM GdA at 22° C. (count)” value in test [1] (setting [4]) is given as 64/201; in test [1] (setting [5]), 29/84; in test [1] (RI line 104, root morphology) it was 44/84; in test [1] (setting [6]), 9/28; in test [1] (setting [7]), 19/28; in test [1] (setting [8]), 18/29. The “Frequency with 1 μM GdA at 22° C. (count)” value in test [1] (setting [9]) is 44/158; in test [1] (RI line 134, bent hypocotyls), 49/56; in test [1] (RI line 159, root morphology), 53/105. Further, the “decrease of growth rate” value in test [1] (relative to plants grown without GdA at 22° C.) was in the range of 0.5 to 1 days. Moreover, the “frequency of abnormal phenotypes in F1 progeny” value in test [2] is on record as “up to 25%”. Besides, the “seedlings showing strong morphological abnormalities” value in test [3] (1.0 μM GdA, Col and Ler) is recorded as 5-8%. Besides, in test [3] (progeny of selfed Shadara plants with subtle true leaf abnormalities, with GdA), the “phenotype frequency in selfed progeny” value was 75%.
